{"source": "patent US5464617A", "about": "“β-lactam compounds” (Hoffmann-La Roche Inc., priority 1994, dated 1995)", "key": {"[1]": {"tested_on": "Citrobacter freundii 1982", "assay": "MIC in vitro of a 1:4 combination of ceftriaxone with a compound of formula I (Test D)", "type": "cell-based", "conditions": "Table 4; test D, 1:4 combination of ceftriaxone with the compound", "protocol": "The minimum inhibitory concentration in vitro ([…]) of a 1:4 combination of ceftriaxone with a compound of formula I against Citrobacter freundii 1982 was measured and compiled in Table 2 hereinafter."}, "E. coli 1346": {"tested_on": "E. coli 1346", "assay": "Antibacterial activity of the products per se, serial dilution method in liquid medium (Test E)", "type": "cell-based", "conditions": "Table 4; test E, product per se", "excerpt": "The antibacterial activity of the products per se is illustrated on the basis of Table 3 hereinafter, the minimum inhibitory concentration […] in vitro against E. coli 1346 being determined using the serial dilution method in liquid medium: […]"}}, "note": "Counter-ions that a name gives are not always drawn."}
{"smiles": "Cc1nnc(SCC2=C(C(=O)O)N3C(=O)[C@@H]4[C@H]3[C@@H](CN4C(=O)Nc3ccc(C(N)=O)cc3)O2)s1", "note": "[31(b), (1aS,3aR,6bS)-2-(4-Carbamoyl-phenylcarbamoyl)-5-(S-methyl-1,3,4-thiadiazol-2-ylsulphanylmethyl)-1-oxo-1,1a,2,3,3a,6b-hexahydro-4-oxa-2,6a-diazacyclobut[cd]indene-6-carboxylic acid sodium salt]", "values": [{"measurement": "MIC C. freundii 1982 (D)", "setting": "[1]", "value": 0.2, "unit": "µg/mL"}, {"measurement": "MIC E. coli 1346 (E)", "setting": "E. coli 1346", "value": 8, "unit": "µg/mL"}]}
{"smiles": "O=C(O)C1=C(CSc2ccncc2)O[C@@H]2CN(C(=O)Nc3ccc(O)cc3)[C@@H]3C(=O)N1[C@@H]32", "note": "[31(d), (1aS,3aR,6bS)-2-(4-Hydroxy-phenylcarbamoyl)-1-oxo-5-(pyridin-4-ylsulphanylmethyl)-1,1a,2,3,3a,6b-hexahydro-4-oxa-2,6a-diazacyclobut[cd]indene-6-carboxylicacid sodium salt]", "values": [{"measurement": "MIC C. freundii 1982 (D)", "setting": "[1]", "value": 1, "unit": "µg/mL"}, {"measurement": "MIC E. coli 1346 (E)", "setting": "E. coli 1346", "value": "> 32", "unit": "µg/mL"}]}
{"smiles": "NC(=O)c1ccc(NC(=O)N2C[C@H]3OC(CSc4ccncc4)=C(C(=O)O)N4C(=O)[C@@H]2[C@@H]34)cc1", "note": "[31(e), (1aS,3aR,6bS)-2-(4-Carbamoyl-phenylcarbamoyl)-1-oxo-5-(pyridin-4-ylsulphanylmethyl)-1,1a,2,3,3a,6 b-hexahydro-4-oxa-2,6a-diazacyclobut[cd]indene-6-carboxylic acid sodium salt]", "values": [{"measurement": "MIC C. freundii 1982 (D)", "setting": "[1]", "value": 0.5, "unit": "µg/mL"}, {"measurement": "MIC E. coli 1346 (E)", "setting": "E. coli 1346", "value": "> 32", "unit": "µg/mL"}]}
{"smiles": "Cn1nnnc1SCC1=C(C(=O)O)N2C(=O)[C@@H]3[C@H]2[C@@H](CN3C(=O)Nc2ccc(O)cc2)O1", "note": "[31(h), (1aS,3aR,6bS)-2-(4-hydroxy-phenylcarbamoyl)-5-(1-methyl-1H-tetrazol-5-ylsulphanylmethyl)-1-oxo-1,1a,2,3,3a,6b-hexahydro-4-oxa-2,6a-diazacyclobut[cd]indene-6-carboxylic acid sodium salt]", "values": [{"measurement": "MIC C. freundii 1982 (D)", "setting": "[1]", "value": 0.5, "unit": "µg/mL"}, {"measurement": "MIC E. coli 1346 (E)", "setting": "E. coli 1346", "value": 8, "unit": "µg/mL"}]}
{"smiles": "Cn1nnnc1SCC1=C(C(=O)O)N2C(=O)[C@@H]3[C@H]2[C@@H](CN3C(=O)Nc2ccc(C(N)=O)cc2)O1", "note": "[31(i), (1aS,3aR,6bS)-2-(4-Carbamoyl-phenylcarbamoyl)-5-(1-methyl-1H-tetrazol-5-ylsulphanylmethyl)-1-oxo-1,1a,2,3,3a,6b-hexahydro-4-oxa-2,6a-diazacyclobut[cd]indene-6-carboxylic acid sodium salt]", "values": [{"measurement": "MIC C. freundii 1982 (D)", "setting": "[1]", "value": 0.5, "unit": "µg/mL"}, {"measurement": "MIC E. coli 1346 (E)", "setting": "E. coli 1346", "value": 8, "unit": "µg/mL"}]}
{"smiles": "CC(=O)N1C[C@H]2OC(CSc3ccncc3)=C(C(=O)O)N3C(=O)[C@@H]1[C@@H]23", "note": "[32(a), (1aS,3aR,6bS)-2-Acetyl-5-(pyridin-4-ylsulphanylmethyl)-1-oxo-1,1a,2,3,3a,6b-hexahydro-4-oxa-2,6a-diazacyclobut[cd]indene-6-carboxylic acid sodium salt]", "values": [{"measurement": "MIC C. freundii 1982 (D)", "setting": "[1]", "value": 16, "unit": "µg/mL"}, {"measurement": "MIC E. coli 1346 (E)", "setting": "E. coli 1346", "value": "> 32", "unit": "µg/mL"}]}
{"smiles": "CC(=O)N1C[C@H]2OC(CSc3cc(C)nc4nc(C(N)=O)nn34)=C(C(=O)O)N3C(=O)[C@@H]1[C@@H]23", "note": "[32(c), (1aS,3aR,6bS)-2-Acetyl-5-(2-carbamoyl-S-methyl[1,2,4]-triazolo[1,5-a]pyrimidin-7-ylsulphanylmethyl)-1-oxo-1,1a,2,3,3a,6b-hexahydro-4-oxa-2,6a-diazacyclobut[cd]indene-6-carboxylic acid sodium salt]", "values": [{"measurement": "MIC C. freundii 1982 (D)", "setting": "[1]", "value": 32, "unit": "µg/mL"}, {"measurement": "MIC E. coli 1346 (E)", "setting": "E. coli 1346", "value": 4, "unit": "µg/mL"}]}
{"smiles": "CC(=O)N1C[C@H]2OC(CSc3nnnn3CC(=O)NC3CC3)=C(C(=O)O)N3C(=O)[C@@H]1[C@@H]23", "note": "[32(d), (1a-S,3aR,6bS)-2-Acetyl-5-(1-cyclopropylcarbamoylmethyl-1H-tetrazol-5-ylsulphanylmethyl)-1-oxo-1,1a,2,3,3a,6b-hexahydro-4-oxa-2,6a-diazacyclobut[cd]indene-6-carboxylic acid sodium salt]", "values": [{"measurement": "MIC C. freundii 1982 (D)", "setting": "[1]", "value": 16, "unit": "µg/mL"}, {"measurement": "MIC E. coli 1346 (E)", "setting": "E. coli 1346", "value": 16, "unit": "µg/mL"}]}
{"smiles": "CC(=O)N1C[C@H]2OC(CSc3nnnn3CC(N)=O)=C(C(=O)O)N3C(=O)[C@@H]1[C@@H]23", "note": "[32(e), (1aS,3aR,6bS)-2-Acetyl-5-(1-carbamoylmethyl-1H-tetrazol-5-ylsulphanylmethyl)-1-oxo-1,1a,2,3,3a,6b-hexahydro-4-oxa-2,6a-diazacyclobut[cd]indene-6-carboxylic acid sodium salt]", "values": [{"measurement": "MIC C. freundii 1982 (D)", "setting": "[1]", "value": 2, "unit": "µg/mL"}, {"measurement": "MIC E. coli 1346 (E)", "setting": "E. coli 1346", "value": 4, "unit": "µg/mL"}]}
{"smiles": "CNC(=O)Cn1nnnc1SCC1=C(C(=O)O)N2C(=O)[C@@H]3[C@H]2[C@@H](CN3C(C)=O)O1", "note": "[32(f), (1aS,3aR, 6bS)-2-Acetyl-5-(1-methyl-carbamoylmethyl-1H-tetrazol-5-ylsulphanylmethyl)-1-oxo-1,1a,2,3,3a,6b-hexahydro-4-oxa-2,6a-diazacyclobut[cd]indene-6-carboxylic acid sodium salt]", "values": [{"measurement": "MIC C. freundii 1982 (D)", "setting": "[1]", "value": 8, "unit": "µg/mL"}, {"measurement": "MIC E. coli 1346 (E)", "setting": "E. coli 1346", "value": 4, "unit": "µg/mL"}]}
{"smiles": "CC(=O)N1C[C@H]2OC(CSc3nnnn3CC(=O)NOC(c3ccccc3)(c3ccccc3)c3ccccc3)=C(C(=O)O)N3C(=O)[C@@H]1[C@@H]23", "note": "[32(h), (1aS,3aR,6bS)-2-Acetyl-1-oxo-5-(1-(trityloxycarbamoylmethyl)-1H-tetrazol-5-ylsulphanylmethyl)-1,1a,2,3,3a,6b-hexahydro-4-oxa-2,6 a-diazacyclobut[cd]indene-6-carboxylic acid sodium salt]", "values": [{"measurement": "MIC C. freundii 1982 (D)", "setting": "[1]", "value": 64, "unit": "µg/mL"}, {"measurement": "MIC E. coli 1346 (E)", "setting": "E. coli 1346", "value": "> 32", "unit": "µg/mL"}]}
{"smiles": "NC(=O)Cn1nnnc1SCC1=C(C(=O)O)N2C(=O)[C@@H]3[C@H]2[C@@H](CN3C=O)O1", "note": "[38(b), (1 aS ,3aR, 6 bS )-5-(1-Carbamoylmethyl-1H-tetrazol-5-yl-sulfanylmethyl)-2-formyl-1-oxo-1,1a,2,3,3a,6b-hexahydro-4-oxa-2,6a-diaza-cyclobut[cd]indene-6-carboxylic acid sodium salt]", "values": [{"measurement": "MIC C. freundii 1982 (D)", "setting": "[1]", "value": 4, "unit": "µg/mL"}, {"measurement": "MIC E. coli 1346 (E)", "setting": "E. coli 1346", "value": 8, "unit": "µg/mL"}]}
{"smiles": "O=CN1C[C@H]2OC(CSc3nnnn3CC(=O)NOC(c3ccccc3)(c3ccccc3)c3ccccc3)=C(C(=O)O)N3C(=O)[C@@H]1[C@@H]23", "note": "[38(d), (1aS,3aR,6bS)-2-Formyl-1-oxo-5-(1-(trityloxycarbamoylmethyl)-1H-tetrazol-5-ylsulphanylmethyl)-1,1a,2,3,3a,6b-hexahydro-4-oxa-2,6a-diazacyclobut[cd]indene-6-carboxylic acid sodium salt]", "values": [{"measurement": "MIC C. freundii 1982 (D)", "setting": "[1]", "value": 128, "unit": "µg/mL"}, {"measurement": "MIC E. coli 1346 (E)", "setting": "E. coli 1346", "value": "> 32", "unit": "µg/mL"}]}
{"smiles": "Cn1ccnc1SCC1=C(C(=O)O)N2C(=O)[C@H]3NC[C@@H](S1)[C@H]32", "note": "[40(c), (1aS,3aR,6bS)-5-(1-Methyl-imidazol-2-ylsulphanyl-methyl)-1-oxo-4-thia-1,1a,2,3,3a,6b-hexahydro-2,6a-diazacyclobut[cd]indene-6-carboxylic acid]", "values": [{"measurement": "MIC C. freundii 1982 (D)", "setting": "[1]", "value": 0.5, "unit": "µg/mL"}, {"measurement": "MIC E. coli 1346 (E)", "setting": "E. coli 1346", "value": "> 32", "unit": "µg/mL"}]}
{"smiles": "Cn1c(O)nnc1SCC1=C(C(=O)O)N2C(=O)[C@H]3NC[C@@H](S1)[C@H]32", "note": "[40(d), (1aS,3aR,6bS)-5-(5-Hydroxy-4-methyl-4H-[1,2,4]-triazol-3-ylsulphanylmethyl)-1-oxo-4-thia-1,1a,2,3,3a,6b-hexahydro-2,6a-diazacyclobut[cd]indene-6-carboxylic acid]", "values": [{"measurement": "MIC C. freundii 1982 (D)", "setting": "[1]", "value": 2, "unit": "µg/mL"}, {"measurement": "MIC E. coli 1346 (E)", "setting": "E. coli 1346", "value": 8, "unit": "µg/mL"}]}
{"smiles": "Nc1nnc(SCC2=C(C(=O)O)N3C(=O)[C@H]4NC[C@@H](S2)[C@H]43)s1", "note": "[40(e), (1aS,3aR,6bS)-5-(5-Amino-1,3,4-thiadiazol-2-ylsulphanylmethyl)-1-oxo-4-thia-1,1a,2,3,3a,6b-hexahydro-2,6a-diazacyclobut[cd]indene-6-carboxylic acid]", "values": [{"measurement": "MIC C. freundii 1982 (D)", "setting": "[1]", "value": 1, "unit": "µg/mL"}, {"measurement": "MIC E. coli 1346 (E)", "setting": "E. coli 1346", "value": 32, "unit": "µg/mL"}]}
{"smiles": "O=C(O)C1=C(CSc2ccncc2)S[C@@H]2CN[C@@H]3C(=O)N1[C@@H]32", "note": "[40(f), (1aS,3aR,6bS)-1-Oxo-5-(pyridin-4-ylsulphanylmethyl)-4-thia-1,1a,2,3,3a,6b-hexahydro-2,6a-diazacyclobut[cd]indene-6-carboxylic acid]", "values": [{"measurement": "MIC C. freundii 1982 (D)", "setting": "[1]", "value": 2, "unit": "µg/mL"}, {"measurement": "MIC E. coli 1346 (E)", "setting": "E. coli 1346", "value": 32, "unit": "µg/mL"}]}
{"smiles": "O=C(O)C1=C(CSc2nnnn2CC(=O)N2CCOCC2)S[C@@H]2CN[C@@H]3C(=O)N1[C@@H]32", "note": "[40(g), (1aS,3aR,6bS)-5-[1-(2-Morpholin-4-yl-2-oxo-ethyl)-1H-tetrazol-5-ylsulphanylmethyl]-1-oxo-4-thia-1,1a,2,3,3a,6b-hexahydro-2,6a-diazacyclobut[cd]indene-6-carboxylic acid]", "values": [{"measurement": "MIC C. freundii 1982 (D)", "setting": "[1]", "value": 4, "unit": "µg/mL"}, {"measurement": "MIC E. coli 1346 (E)", "setting": "E. coli 1346", "value": "> 32", "unit": "µg/mL"}]}
{"smiles": "Cc1nnc(SCC2=C(C(=O)O)N3C(=O)[C@H]4NC[C@@H](S2)[C@H]43)s1", "note": "[40(h), (1aS,3aR,6bS)-5-[5-Methyl-1,3,4-thiadiazol-2-ylsulphanylmethyl]-1-oxo-4-thia-1,1a,2,3,3a,6b-hexahydro-2,6a-diazacyclobut[cd]indene-6-carboxylic acid]", "values": [{"measurement": "MIC C. freundii 1982 (D)", "setting": "[1]", "value": 0.5, "unit": "µg/mL"}, {"measurement": "MIC E. coli 1346 (E)", "setting": "E. coli 1346", "value": 8, "unit": "µg/mL"}]}
{"smiles": "O=C(O)C1=C(CSc2ccnc3c2CCC3)S[C@@H]2CN(C(=O)Nc3ccc(O)cc3)[C@@H]3C(=O)N1[C@@H]32", "note": "[41(a), (1aS,3aR,6bS)-2-(4-Hydroxy-phenylcarbamoyl)-5-(6,7-dihydro-5H-1-pyrindin-4-ylsulphanylmethyl)-1-oxo-4-thia-1,1a,2,3,3a,6b-hexahydro-2,6a-diazacyclobut[cd]indene-6-carboxylic acid sodium salt]", "values": [{"measurement": "MIC C. freundii 1982 (D)", "setting": "[1]", "value": 2, "unit": "µg/mL"}, {"measurement": "MIC E. coli 1346 (E)", "setting": "E. coli 1346", "value": "> 32", "unit": "µg/mL"}]}
{"smiles": "O=C(O)C1=C(CSc2ccncc2)S[C@@H]2CN(C(=O)Nc3ccc(O)cc3)[C@@H]3C(=O)N1[C@@H]32", "note": "[41(b), (1aS,3aR,6bS)-2-(4-Hydroxy-phenylcarbamoyl)-1-oxo-5-(pyridin-4-ylsulphanylmethyl)-4-thia-1,1a,2,3,3a,6b-hexahydro-2,6a-diazacyclobut[cd]indene-6-carboxylic acid sodium salt]", "values": [{"measurement": "MIC C. freundii 1982 (D)", "setting": "[1]", "value": 4, "unit": "µg/mL"}, {"measurement": "MIC E. coli 1346 (E)", "setting": "E. coli 1346", "value": "> 32", "unit": "µg/mL"}]}
